We go through 21 compounds from PubChem BioAssay (NCI).

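Compound exposure: 48 hours, 5 concentrations, 96-well plates. TGI denotes the concentration required for complete inhibition of growth.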

Holding throughout (assay): inhibition of tumour cell growth, NCI panel, 48 h
Experiment [1] has as its system SK-MEL-5 melanoma.
For experiment [2], the system named is COLO 205 colon.
For experiment [3], the system named is SNB-75 CNS.
The test system of experiment [4] is UACC-62 melanoma.
The subject of experiment [5] is SNB-19 CNS.
The subject of experiment [6] is U251 CNS.
Experiment [7] concerns ACHN renal.
In experiment [8] the test system is NCI-H522 lung.
In experiment [9] the test system is HS 578T breast.
Experiment [10] deals with SN12C renal.
The subject of experiment [11] is SK-MEL-2 melanoma.
The test system of experiment [12] is MDA-MB-231 breast.
Experiment [13] has as its system TK-10 renal.
The test system of experiment [14] is KM12 colon.

Regarding `COc1cc2c3c([nH]c2c(OC)c1OC)CCN(Cc1ccccc1)C3`, the TGI in experiment [1] is 34.9 µM; in experiment [2], 32 µM; in experiment [3], above 100 µM; in [4], above 100 µM; in experiment [5] it was above 100 µM; in [6], 87.4 µM. Moreover, the TGI in experiment [7] was above 100 µM; in experiment [8] it was above 100 µM; in [9], above 100 µM; in experiment [10] it was above 100 µM; in [11], 47.1 µM; in experiment [12], above 100 µM. The TGI in [13] is 78.9 µM; in experiment [14], above 100 µM.

For the compound `NC(Cc1ccc(S(=O)(=O)O)cc1)C(=O)NC(Cc1ccc(S(=O)(=O)O)cc1)C(=O)NC(Cc1ccc(S(=O)(=O)O)cc1)C(=O)NC(Cc1ccc(S(=O)(=O)O)cc1)C(=O)O` (stereo unspecified), the TGI in experiment [1], in experiment [2], in experiment [3], in experiment [4], in [6] and in [7] was above 100 µM in each case. The TGI in [8], in experiment [9], in experiment [10], in experiment [11], in experiment [12] and in experiment [13] was above 100 µM throughout. The TGI in [14] is above 100 µM.

With `c1ccc(N=C2c3ccsc3C(=Nc3ccccc3)c3ccsc32)cc1`, the TGI amounted to 2.35 µM in experiment [1]; 6.01 µM in experiment [2]; 2.45 µM in [3]; 3.9 µM in experiment [4]; 3.88 µM in experiment [5]; 4.01 µM in experiment [6]. The TGI in [7] was 3.04 µM; in experiment [8] it was 4.34 µM; in experiment [9], 6.04 µM; in experiment [10], 3.02 µM; in experiment [11], 3.38 µM; in [12], 4.5 µM. In addition, the TGI in experiment [13] was found to be 13.7 µM; in experiment [14], 6.35 µM.

Take `O=c1[nH]c2nc3ccccc3c(=O)n2/c1=C/c1ccco1`: the TGI in experiment [1], in experiment [2], in experiment [3], in experiment [4], in experiment [5] and in experiment [6] was above 100 µM throughout. The TGI in [7], in experiment [8], in experiment [9], in experiment [10], in experiment [11] and in experiment [12] was above 100 µM in each case. In addition, the TGI in experiment [13] and in experiment [14] was above 100 µM each time.

With `O=C1c2c(Br)sc(Br)c2[C@@H](NC(=O)C(F)(F)F)C1Br` (stereo partly specified), the TGI in experiment [1] stood at 7.88 µM; in experiment [2], 4.02 µM; in [3] it was 16.1 µM; in experiment [4] it was 14.6 µM; in experiment [5], 25.9 µM; in [6], 9.08 µM. For the same compound, the TGI is 6.1 µM in [7]; 5.07 µM in experiment [8]; above 63.9 µM in [9]; 8.33 µM in experiment [10]; 27.5 µM in experiment [11]; 6.06 µM in experiment [12]. Moreover, the TGI was 30.5 µM in experiment [13] and 17.7 µM in [14].

Consider `CCc1ccc2c(c1)N(CC(C)CN(C)C)c1ccccc1S2` (stereo unspecified), for which the TGI in [1] was determined as 8.1 µM; in [2], 8.47 µM; in experiment [3], 9.94 µM; in experiment [4], 13.1 µM; in experiment [5], 23 µM; in experiment [6], 17.4 µM. In addition, the TGI is 15.5 µM in [7]; 7.96 µM in experiment [8]; 18.6 µM in experiment [9]; 19.5 µM in [10]; 12 µM in [11]; 17.3 µM in [12]. Also, the TGI is 11.4 µM in [13] and 16.6 µM in [14].

Turning to `COc1ccc2c3c1O[C@H](c1ccc(O)cc1)[C@H]3[N+](C)(C)CC2`, the TGI in [1], in experiment [2], in experiment [3], in [4], in [5] and in experiment [6] was above 100 µM throughout. Besides, the TGI in experiment [7], in [8], in [9], in [10], in experiment [11] and in experiment [12] was above 100 µM each time. In addition, the TGI in experiment [13] and in experiment [14] was above 100 µM each time.

With `CCCc1[nH]c2ccccc2c1-c1c(CCC)[nH]c2ccccc12`, the TGI in experiment [1] was found to be 23.7 µM; in [2], 37.1 µM; in experiment [3], 39.7 µM; in [4] it was 34.8 µM; in experiment [5] it was 29.3 µM; in [6], 21.9 µM. For the same compound, the TGI in experiment [7] was 31.7 µM; in [8], 34.2 µM; in experiment [9], 50.5 µM; in experiment [10] it was 23.2 µM; in experiment [11], 35.7 µM; in [12], 38.6 µM. Besides, the TGI in [13] is 50.9 µM; in experiment [14] it was above 61.2 µM.

For the compound `Clc1ccc2oc(CCc3ccccc3)nc2c1`, the TGI in experiment [1] is 55.4 µM; in experiment [2], above 100 µM; in experiment [3] it was 62.8 µM; in experiment [4], above 100 µM; in experiment [5] it was above 100 µM; in experiment [6], above 100 µM. Further, the TGI in [7], in [8], in experiment [9], in experiment [10], in experiment [11] and in experiment [12] was above 100 µM each time. Besides, the TGI in experiment [13] and in experiment [14] was above 100 µM throughout.

For the compound `COC(=O)C1CCC(=O)N1C(c1ccc2c(c1)OCO2)c1cc(OC)c(OC)c(OC)c1` (stereo unspecified), the TGI in experiment [1], in experiment [2], in experiment [3], in experiment [4], in [5] and in [6] was above 100 µM in each case. For the same compound, the TGI in [7] is above 100 µM; in [8], 24.4 µM; in experiment [9] it was above 100 µM; in [10], above 100 µM; in experiment [11], above 100 µM; in experiment [12] it was above 100 µM. The TGI in [13] and in [14] was above 100 µM each time.

As to `CCCn1c(=O)c(N2CCN(c3ccccc3)CC2)nc2sc3ccccc3c21`, the TGI in experiment [1], in [2], in [3], in [4], in experiment [5] and in experiment [6] was above 100 µM in each case. For the same compound, the TGI in experiment [7], in experiment [8], in [9], in [10], in experiment [11] and in experiment [12] was above 100 µM in each case. Also, the TGI in [13] and in experiment [14] was above 100 µM throughout.

Regarding `C=CCC1(C)CCCN(Cc2ccccc2)C1=O` (stereo unspecified), the TGI was 1.48 µM in experiment [1]; above 10 µM in experiment [2]; above 10 µM in [4]; above 10 µM in [5]; above 10 µM in experiment [6]; above 10 µM in experiment [7]. The TGI in experiment [8], in [9], in [10], in [11], in experiment [12] and in [13] was above 10 µM in each case. For the same compound, the TGI in [14] was above 10 µM.

`CC[C@@]1(O)C(=O)OCc2c1cc1n(c2=O)Cc2c-1nc1ccccc1c2/C=N\NC(=O)C(N)CCSC` (stereo partly specified): the TGI in experiment [1] was 0.191 µM; in [2], 18.5 µM; in experiment [3], 1.44 µM; in experiment [4], below 0.043 µM; in experiment [5], 0.722 µM; in [6], 1.17 µM. In addition, the TGI in experiment [7] was below 0.0506 µM; in experiment [8] it was 2.02 µM; in [9], above 100 µM; in [10], 0.925 µM; in [11], 4.2 µM; in [12], above 100 µM. The compound further returned a TGI in experiment [13] above 100 µM.

In the case of `CSc1c(C#N)c(N)n(-c2ccc(Cl)cc2)c(=O)c1C#N`, the TGI in [1], in [2], in [3], in experiment [4], in experiment [5] and in [6] was above 100 µM throughout. In addition, the TGI in [8], in experiment [9], in experiment [10], in experiment [11], in experiment [12] and in experiment [13] was above 100 µM throughout. The compound further registered a TGI in [14] above 100 µM.

`O=c1[nH]nc(-c2ccccc2)n1O`: the TGI in experiment [1], in [2], in [4], in experiment [5], in experiment [6] and in experiment [7] was above 100 µM in each case. Moreover, the TGI in experiment [8], in [9], in [10], in experiment [11], in [12] and in experiment [13] was above 100 µM each time. In experiment [14], this compound showed a TGI above 100 µM.

For the compound `N#C/C(C(=S)NCc1ccccc1)=C(/N)N1CCCC1`, the TGI in [1], in experiment [2], in experiment [4], in experiment [5], in experiment [6] and in experiment [7] was above 100 µM throughout. In addition, the TGI in experiment [8], in experiment [9], in experiment [10], in experiment [11], in [12] and in [13] was above 100 µM each time. In [14], this compound came in with a TGI above 100 µM.

With `CCOC(=O)C1CCCCN1C(=O)Cc1c[nH]c2ccccc12` (stereo unspecified), the TGI in experiment [2], in experiment [3], in [4], in [5], in experiment [6] and in [7] was above 100 µM in each case. Besides, the TGI in experiment [8], in experiment [9], in experiment [10], in experiment [11], in [12] and in [13] was above 100 µM in each case. This compound also yielded a TGI in [14] above 100 µM.

`Cn1c(=O)n2n(c1=O)C(C)(C13CC4CC(CC(C4)C1)C3)C13CC4CC(CC1C4)CC23` (stereo unspecified): the TGI in [1], in experiment [2], in experiment [3], in [4], in [5] and in experiment [6] was above 100 µM in each case. Besides, the TGI in experiment [7], in experiment [9], in experiment [10], in [11], in experiment [12] and in experiment [13] was above 100 µM throughout. Further, the TGI in [14] is above 100 µM.

`Nc1ccc(Nc2cc(=O)[nH]c(=O)[nH]2)cc1Cl`: the TGI in experiment [1], in experiment [2], in [4], in experiment [5], in [6] and in [7] was above 100 µM each time. Moreover, the TGI in experiment [8], in [9], in experiment [10], in experiment [11], in [12] and in experiment [13] was above 100 µM each time.

Regarding `COc1cccc(/N=N/C(=NNC(=O)c2ccc(C)cc2)c2ccc(N(C)C)cc2)c1`, the TGI in experiment [1], in experiment [2], in experiment [5], in [6], in experiment [7] and in [8] was above 100 µM each time. In addition, the TGI in [9], in [10], in [11], in experiment [12], in [13] and in experiment [14] was above 100 µM in each case.

Turning to `CN1CCN(c2ccc3c(c2)NCC(=O)N3)CC1`, the TGI in [1], in experiment [2], in experiment [3], in experiment [4], in experiment [5] and in [6] was above 100 µM in each case. The TGI in experiment [7], in experiment [8], in [9], in experiment [11], in [12] and in experiment [13] was above 100 µM throughout. The compound further yielded a TGI in experiment [14] above 100 µM.
